Test results reported in PubChem BioAssay AID328 (DTP/NCI, 2004).
Inconclusive results and toxic doses are left out. Rule for the calls: active = survival T/C of 150% or more; inactive = T/C below 125% in these data. Non-standard residues stand in square brackets, D forms with d. Residues, ends and D or L forms follow the SMILES beside them. ξ: configuration not given here. ξLac(3-iPr) = CC(C)CC(O)C(=O)O; NMeV = CN[CH](C(=O)O)C(C)C; NMeA = CN[CH](C)C(=O)O; βAla = NCCC(=O)O

System: BDF1 mice, P388 leukemia ip, median survival T/C
Assay: NCI In Vivo Anticancer Drug Screen. Data for tumor model P388 Leukemia (intraperitoneal) in B6D2F1 (BDF1) mice
Settings: endpoint: median survival time, higher = longer survival
Method in brief: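 Mice carrying the transplantable tumour receive compound or vehicle. Survival is followed in each arm, and the treated measure is divided by the vehicle measure.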

Measured: T/C

C/C=C/C[n+]1cccc2ccccc21
inactive: dose: 6.25 mg/kg/injection, schedule: Q01DX009 (ip), vehicle: Klucel (hydroxypropylcellulose) (HPC) 86 % of control | dose: 6.25 mg/kg/injection, schedule: Q04DX003 (ip), vehicle: saline 104 % of control | dose: 12.5 mg/kg/injection, schedule: Q01DX009 (ip), vehicle: Klucel (hydroxypropylcellulose) (HPC) 90 % of control | dose: 12.5 mg/kg/injection, schedule: Q04DX003 (ip), vehicle: saline 104 % of control | dose: 25.0 mg/kg/injection, schedule: Q01DX009 (ip), vehicle: Klucel (hydroxypropylcellulose) (HPC) 86 % of control | dose: 25.0 mg/kg/injection, schedule: Q04DX003 (ip), vehicle: saline 109 % of control

CCCCOCN1COCC1(C)C
inactive: dose: 50.0 mg/kg/injection, schedule: Q04DX003 (ip), vehicle: saline 100 % of control | dose: 100.0 mg/kg/injection, schedule: Q04DX003 (ip), vehicle: saline 105 % of control

COc1cc(O)c2c(c1)OC(c1ccc(OC)c(O)c1)CC2=O (configuration not stated)
inactive: dose: 12.5 mg/kg/injection, schedule: Q01DX009 (ip), vehicle: alcohol 117 % of control | dose: 50.0 mg/kg/injection, schedule: Q01DX009 (ip), vehicle: alcohol 109 % of control | dose: 100.0 mg/kg/injection, schedule: Q01DX009 (ip), vehicle: alcohol 92 % of control

CSc1ccc(NC(=O)N(CCCl)N=O)cc1
inactive: dose: 6.25 mg/kg/injection, schedule: Q01DX009 (ip), vehicle: saline 100 % of control | dose: 6.25 mg/kg/injection, schedule: Q04DX003 (ip), vehicle: saline sonified 90 % of control | dose: 11.0 mg/kg/injection, schedule: Q04DX003 (ip), vehicle: saline sonified 100 % of control | dose: 12.5 mg/kg/injection, schedule: Q01DX009 (ip), vehicle: saline 100 % of control | dose: 12.5 mg/kg/injection, schedule: Q04DX003 (ip), vehicle: saline sonified 109 % of control | dose: 16.0 mg/kg/injection, schedule: Q04DX003 (ip), vehicle: saline sonified 122 % of control | dose: 25.0 mg/kg/injection, schedule: Q01DX009 (ip), vehicle: saline 116 % of control | dose: 37.5 mg/kg/injection, schedule: Q04DX003 (ip), vehicle: saline sonified 122 % of control

O=[N+]([O-])/C=C/c1ccccc1Cl
inactive: dose: 2.2 mg/kg/injection, schedule: Q01DX009 (ip), vehicle: other 110 % of control | dose: 3.3 mg/kg/injection, schedule: Q01DX009 (ip), vehicle: other 119 % of control | dose: 5.0 mg/kg/injection, schedule: Q01DX009 (ip), vehicle: other 122 % of control | dose: 6.6 mg/kg/injection, schedule: Q04DX003 (ip), vehicle: other 109 % of control | dose: 7.5 mg/kg/injection, schedule: Q01DX009 (ip), vehicle: other 115 % of control | dose: 10.0 mg/kg/injection, schedule: Q04DX003 (ip), vehicle: other 104 % of control | dose: 37.5 mg/kg/injection, schedule: Q01DX009 (sc), vehicle: olive oil, sesame oil, peanut oil 100 % of control | dose: 37.5 mg/kg/injection, schedule: Q04DX003 (sc), vehicle: olive oil, sesame oil, peanut oil 95 % of control | dose: 75.0 mg/kg/injection, schedule: Q01DX009 (sc), vehicle: olive oil, sesame oil, peanut oil 109 % of control | dose: 75.0 mg/kg/injection, schedule: Q04DX003 (sc), vehicle: olive oil, sesame oil, peanut oil 90 % of control | dose: 150.0 mg/kg/injection, schedule: Q01DX009 (sc), vehicle: olive oil, sesame oil, peanut oil 100 % of control | dose: 150.0 mg/kg/injection, schedule: Q04DX003 (sc), vehicle: olive oil, sesame oil, peanut oil 104 % of control

CCOC(=O)C1=C(C)NC(C)=C(C(=O)OCC)C1c1cc(OC)c(OC)c(OC)c1
inactive: dose: 25.0 mg/kg/injection, schedule: Q01DX009 (ip), vehicle: other 100 % of control | dose: 50.0 mg/kg/injection, schedule: Q01DX009 (ip), vehicle: other 95 % of control | dose: 100.0 mg/kg/injection, schedule: Q01DX009 (ip), vehicle: other 96 % of control | dose: 200.0 mg/kg/injection, schedule: Q01DX009 (ip), vehicle: other 95 % of control | dose: 400.0 mg/kg/injection, schedule: Q01DX009 (ip), vehicle: other 87 % of control

CCC(C)C1NC(=O)C2CCCN2C(=O)C(CC(C)C)OC(=O)CCNC(=O)C(C)N(C)C(=O)C(C(C)C)N(C)C1=O (configuration not stated) (cyclo([ξLac(3-iPr)]PI[NMeV][NMeA][βAla]); configuration not given here)
inactive: dose: 0.82 mg/kg/injection, schedule: Q01DX009 (ip), vehicle: saline 115 % of control | dose: 1.25 mg/kg/injection, schedule: Q01DX009 (ip), vehicle: saline 91 % of control | dose: 1.8 mg/kg/injection, schedule: Q01DX009 (ip), vehicle: saline 107 % of control | dose: 2.5 mg/kg/injection, schedule: Q01DX009 (ip), vehicle: saline 96 % of control | dose: 5.0 mg/kg/injection, schedule: Q01DX009 (ip), vehicle: saline 108 % of control | dose: 10.0 mg/kg/injection, schedule: Q01DX009 (ip), vehicle: saline 104 % of control
